“And” between values parts separate entries of the source, which are not always exact repeats. Equal values may be shown once.
Columns and labels:
Assay in all cases: Target kinase isoforms 10-point IC50 determination (Supplementary Fig. 7)
Assay type in all cases: biochemical
[1] = target: Target kinase isoforms (PI3K, mTOR, RAF, MEK) (Homo sapiens, UniProt P36507); settings: MEK2, replicates
Method in brief: (§1)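 Kinase activity across a 10-point dose series was corrected and normalized to vehicle-treated controls. IC50 values were derived by non-linear regression of percent activity. Kinome-wide percent inhibition was averaged over replicates.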

[2] = target: Target kinase isoforms (PI3K, mTOR, RAF, MEK) (Homo sapiens, UniProt P04049); settings: CRAF
Method in brief: as §1

[3] = target: Target kinase isoforms (PI3K, mTOR, RAF, MEK) (Homo sapiens, UniProt P15056); settings: BRAF
Method in brief: as §1

[4] = concentration 0.495 nM, 0.000495 µM
[5] = concentration 1.52 nM, 0.00152 µM
[6] = concentration 4.57 nM, 0.00457 µM
[7] = concentration 41.2 nM, 0.0412 µM

Target kinase isoforms (PI3K, mTOR, RAF, MEK) (Homo sapiens, UniProt P15056), sequence (P15056 whole entry, canonical isoform): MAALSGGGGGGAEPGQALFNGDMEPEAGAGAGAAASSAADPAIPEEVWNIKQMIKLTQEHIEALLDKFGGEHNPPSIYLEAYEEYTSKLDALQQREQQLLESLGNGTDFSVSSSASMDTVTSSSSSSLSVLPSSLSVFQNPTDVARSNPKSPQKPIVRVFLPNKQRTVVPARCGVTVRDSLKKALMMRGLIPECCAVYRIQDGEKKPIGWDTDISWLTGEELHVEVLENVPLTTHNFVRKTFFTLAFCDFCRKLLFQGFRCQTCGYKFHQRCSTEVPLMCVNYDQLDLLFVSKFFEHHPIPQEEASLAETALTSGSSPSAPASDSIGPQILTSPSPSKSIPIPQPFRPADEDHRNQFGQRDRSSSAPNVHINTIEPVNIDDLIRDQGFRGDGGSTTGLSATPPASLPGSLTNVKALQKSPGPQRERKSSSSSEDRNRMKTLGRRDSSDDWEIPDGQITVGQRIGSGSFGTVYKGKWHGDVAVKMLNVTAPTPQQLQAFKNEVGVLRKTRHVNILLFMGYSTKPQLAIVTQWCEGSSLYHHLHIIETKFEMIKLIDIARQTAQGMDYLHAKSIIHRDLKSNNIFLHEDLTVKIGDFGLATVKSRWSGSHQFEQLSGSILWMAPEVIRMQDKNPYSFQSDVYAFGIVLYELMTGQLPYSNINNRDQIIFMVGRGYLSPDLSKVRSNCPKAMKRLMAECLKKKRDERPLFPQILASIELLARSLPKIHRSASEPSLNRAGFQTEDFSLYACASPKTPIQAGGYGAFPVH
Target kinase isoforms (PI3K, mTOR, RAF, MEK) (Homo sapiens, UniProt P04049), sequence (P04049 whole entry, canonical isoform): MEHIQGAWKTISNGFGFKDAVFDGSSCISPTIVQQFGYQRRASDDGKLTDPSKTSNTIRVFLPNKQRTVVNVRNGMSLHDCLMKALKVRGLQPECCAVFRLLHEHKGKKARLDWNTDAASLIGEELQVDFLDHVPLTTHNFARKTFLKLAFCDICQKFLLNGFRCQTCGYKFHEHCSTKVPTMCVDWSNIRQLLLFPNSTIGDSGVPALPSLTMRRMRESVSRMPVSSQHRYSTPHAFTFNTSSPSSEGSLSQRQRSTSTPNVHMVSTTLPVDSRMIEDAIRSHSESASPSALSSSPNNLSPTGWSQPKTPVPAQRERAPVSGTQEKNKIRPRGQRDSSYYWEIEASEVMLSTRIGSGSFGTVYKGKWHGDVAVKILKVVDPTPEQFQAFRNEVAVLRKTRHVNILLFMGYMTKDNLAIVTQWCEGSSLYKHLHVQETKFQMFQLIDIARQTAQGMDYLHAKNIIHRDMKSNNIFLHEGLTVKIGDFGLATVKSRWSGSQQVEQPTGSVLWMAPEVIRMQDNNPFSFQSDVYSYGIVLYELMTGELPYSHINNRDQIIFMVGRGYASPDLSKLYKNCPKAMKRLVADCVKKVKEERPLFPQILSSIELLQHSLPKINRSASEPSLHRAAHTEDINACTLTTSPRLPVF
Target kinase isoforms (PI3K, mTOR, RAF, MEK) (Homo sapiens, UniProt P36507), sequence (P36507 whole entry, canonical isoform): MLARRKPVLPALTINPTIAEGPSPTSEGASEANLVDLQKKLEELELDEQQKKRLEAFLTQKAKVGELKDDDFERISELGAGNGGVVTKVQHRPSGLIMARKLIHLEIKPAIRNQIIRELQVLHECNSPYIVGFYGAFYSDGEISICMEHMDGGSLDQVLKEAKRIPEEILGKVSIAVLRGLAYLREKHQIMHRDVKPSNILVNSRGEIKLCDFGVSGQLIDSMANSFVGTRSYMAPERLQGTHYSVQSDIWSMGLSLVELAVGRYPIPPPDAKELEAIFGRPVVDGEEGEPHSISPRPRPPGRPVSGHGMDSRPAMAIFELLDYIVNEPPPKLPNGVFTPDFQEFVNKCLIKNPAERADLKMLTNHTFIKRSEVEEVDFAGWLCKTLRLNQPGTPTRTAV

O=C(NOCCOCCOCCOCCC(=O)N1CCN(c2cnc3ccc(-c4cnc(Cl)c(NS(=O)(=O)c5ccc(F)cc5)c4)cc3n2)CC1)c1ccc(F)c(F)c1Nc1ccc(I)cc1F [LP-182, N-(2-(2-(2-(3-(4-(7-(6-chloro-5-((4-fluorophenyl)sulfonamido)pyridin-3-yl)quinoxalin-2-yl)piperazin-1-yl)-3-oxopropoxy)ethoxy)ethoxy)ethoxy)-3,4-difluoro-2-((2-fluoro-4-iodophenyl)amino)benzamide]
activity at 0.000495 µM ([1]; concentration 0.495 nM): 90%
Kinase Activity (%) [1, 4]: 96% (2×) and 93% and 95%
activity at 0.00152 µM ([1]; concentration 1.52 nM): 89%
Kinase Activity (%) [1, 5]: 91% and 95% and 92% and 94%
activity at 0.00457 µM ([1]; concentration 4.57 nM): 87%
Kinase Activity (%) [1, 6]: 96% and 91% and 88%
activity at 0.0412 µM ([1]; concentration 41.2 nM): 68%
Kinase Activity (%) [1, 7]: 64% and 78% (2×) and 82% and 72%
Kinase Activity (%) ([1]; concentration 123 nM, 0.123 µM): 45% and 36% and 54% and 60% and 51% and 56%
activity at 1.11 µM ([1]; concentration 1110 nM): 6%
Kinase Activity (%) ([1]; concentration 1110 nM, 1.11 µM): 8% and 12% (2×) and 10%
Kinase Activity (%) ([1]; concentration 3330 nM, 3.33 µM): 1% (3×) and 2% (2×) and 0%
Kinase Activity (%) ([1]; concentration 10000 nM, 10 µM): 2% (2×) and 0% (2×) and -1% and 1%
activity at 0.000495 µM ([2]; concentration 0.495 nM, replicates): 97%
Kinase Activity (%) ([2]; concentration 0.495 nM, replicates, 0.000495 µM): 102% and 93% and 92% and 98%
activity at 0.00152 µM ([2]; concentration 1.52 nM, replicates): 100%
Kinase Activity (%) ([2]; concentration 1.52 nM, replicates, 0.00152 µM): 93% and 94%
activity at 0.00457 µM ([2]; concentration 4.57 nM, replicates): 96%
Kinase Activity (%) ([2]; concentration 4.57 nM, replicates, 0.00457 µM): 94% (2×) and 89% and 91% and 93%
Kinase Activity (%) ([2]; concentration 41.2 nM, replicates, 0.0412 µM): 56% and 79% and 66% and 72% and 70% and 71%
activity at 0.123 µM ([2]; concentration 123 nM, replicates): 31%
Kinase Activity (%) ([2]; concentration 123 nM, replicates, 0.123 µM): 30% and 34% (3×) and 32%
activity at […] ([2]; concentration 370 nM, replicates): 7%
Kinase Activity (%) ([2]; concentration 1110 nM, replicates, 1.11 µM): 1% (2×) and 3% and 0% and 2% (2×)
Kinase Activity (%) CRAF ([2]; concentration 3330 nM, 3.33 µM): 0% and -2% and -1%
Kinase Activity (%) CRAF ([2]; concentration 10000 nM, 10 µM): 3% and 0% and 1% and -1%
activity at 0.000495 µM ([3]; concentration 0.495 nM): 100%
Kinase Activity (%) BRAF [3, 4]: 102% and 96% and 94% and 93%
activity at 0.00152 µM ([3]; concentration 1.52 nM): 101%
Kinase Activity (%) BRAF [3, 5]: 98% and 95% and 94%
activity at 0.00457 µM ([3]; concentration 4.57 nM): 90%
Kinase Activity (%) BRAF [3, 6]: 94% and 95% and 98% and 89% and 93%
Kinase Activity (%) BRAF [3, 7]: 49% and 38% and 54% and 59% and 53%
Kinase Activity (%) BRAF ([3]; concentration 1110 nM, 1.11 µM): -5% and -3% and 2% and 4% and 5%
Kinase Activity (%) BRAF ([3]; concentration 3330 nM, 3.33 µM): -5% and 1% and 4%

From PMC9386018, “A lymphatic-absorbed multi-targeted kinase inhibitor for myelofibrosis therapy” (Nature Communications, 2022)
